Patent US12110294B2, “CD73 compounds” (Gilead Sciences, Inc., priority 2020, dated 2024)
Like-named read-outs stand apart in the source and are kept apart here.

Columns and labels:
CD73 [1] = molecular target: T1, CD73 (Homo sapiens, UniProt P21589); format: biochemical; details: 1 mM NaH2PO4 in enzyme buffer, final AMP 15 uM, final CD73 0.3 nM
T1 construct: purchased R&D system
T1 sequence (P21589 27-549): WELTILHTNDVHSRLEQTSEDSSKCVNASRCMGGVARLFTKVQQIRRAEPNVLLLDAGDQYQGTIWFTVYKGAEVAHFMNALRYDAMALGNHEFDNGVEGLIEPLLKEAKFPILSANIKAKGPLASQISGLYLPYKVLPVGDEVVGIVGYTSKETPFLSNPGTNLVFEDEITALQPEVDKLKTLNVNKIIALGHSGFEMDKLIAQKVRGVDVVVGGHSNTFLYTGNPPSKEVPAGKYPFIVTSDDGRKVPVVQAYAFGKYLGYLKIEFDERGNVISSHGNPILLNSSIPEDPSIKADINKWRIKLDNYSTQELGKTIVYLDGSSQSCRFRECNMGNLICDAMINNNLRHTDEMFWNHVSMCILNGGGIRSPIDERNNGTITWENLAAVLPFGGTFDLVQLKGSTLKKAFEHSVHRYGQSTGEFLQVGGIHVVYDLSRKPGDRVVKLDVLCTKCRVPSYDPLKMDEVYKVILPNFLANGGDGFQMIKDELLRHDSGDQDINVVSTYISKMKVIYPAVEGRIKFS

CD73 [2] = molecular target: T1, CD73; assay: CD73 Biochemical IC50 Assay; details: final AMP 15 uM, final CD73 0.3 nM, 25 mM Tris pH 7.4, 5 mM MgCl2, no phosphate
Procedure: CD73 Biochemical IC50 Assay
Compound serial dilutions were pre-spotted into Thermo Nunc assay plate. 50 μL CD73 enzyme buffer (CD73 purchased from R&D system=0.6 nM, 25 mM Tris, pH 7.4, 5 mM MgCl2) was added into the assay plate and incubated for 15 mins. […] The samples were run using Rapid fire.

[3] = molecular target: T2, CD73 activity in MDA-MB-231-GFP cells (Homo sapiens, UniProt P21589); assay: MDA-MB-231 Cell Based CD73 Activity Assay (DMEM); details: 3000 cells per well, DMEM medium with 10% human plasma, overnight compound treatment, AMP 200 uM
T2 construct: endogenous in cells; host or cells: MDA-MB-231-GFP cells
T2 sequence (P21589 27-549): T1 sequence (P21589 27-549)

[4] = molecular target: T2, CD73 activity in MDA-MB-231-GFP cells; assay: MDA-MB-231 Cell Based CD73 Activity Assay; details: 10000 cells per well, RPMI medium with 10% human plasma, overnight compound treatment, AMP 200 μM
Procedure: MDA-MB-231 Cell Based CD73 Activity Assay
MDA-MB-231-GFP cells were seeded in 384-well plates (Greiner 781946) at a density of 10000 cells per well in 50 μL of RPMI medium with 10% HP (human plasma). Cells were plated into assay plate with compounds pre-spotted, for an overnight compound treatment. 50 μL of 400 μM AMP (final concentration 200 μM) using a Bio-tek dispenser. Plates were incubated for 100 mins. […] The samples were run using Rapid fire.

SMILES	IC50 (CD73 [1]) [nM]	IC50 (CD73 [2]) [nM]	EC50 [3] [nM]	EC50 [4] [nM]
O=c1[nH]cc(-c2cc([C@@H]3C[C@H]3c3ccc(F)c(F)c3)c3nccn3n2)c(=O)[nH]1 (racemic) [Example 33, 5-(8-((1S,2S)-2-(3,4-difluorophenyl)cyclopropyl)imidazo[1,2-b]pyridazin-6-yl)pyrimidine-2,4(1H,3H)-dione and 5-(8-((1R,2R)-2-(3,4-difluorophenyl)cyclopropyl)imidazo[1,2-b]pyridazin-6-yl)pyrimidine-2,4(1H,3H)-dione]	0.93	9.38	4.71	2.04
O=c1[nH]cc(-c2cc([C@@H]3C[C@H]3c3cc(F)c(F)c(F)c3)c3nccn3n2)c(=O)[nH]1 (racemic) [Example 36, 5-(8-((1S,2S)-2-(3,4,5-trifluorophenyl)cyclopropyl)imidazo[1,2-b]pyridazin-6-yl)pyrimidine-2,4(1H,3H)-dione and 5-(8-((1R,2R)-2-(3,4,5-trifluorophenyl)cyclopropyl)imidazo[1,2-b]pyridazin-6-yl)pyrimidine-2,4(1H,3H)-dione]	–	24.2	–	6.51
O=c1[nH]cc(-c2cc([C@@H]3C[C@H]3c3cccc(Cl)c3)c3nccn3n2)c(=O)[nH]1 (racemic) [Example 38, 5-(8-((1S,2S)-2-(3-chlorophenyl)cyclopropyl)imidazo[1,2-b]pyridazin-6-yl)pyrimidine-2,4(1H,3H)-dione and 5-(8-((1R,2R)-2-(3-chlorophenyl)cyclopropyl)imidazo[1,2-b]pyridazin-6-yl)pyrimidine-2,4(1H,3H)-dione]	–	14.3	–	7.29
O=c1[nH]cc(-c2cc([C@@H]3C[C@H]3c3ccc(F)cc3)c3nccn3n2)c(=O)[nH]1 (racemic) [Example 30, 5-(8-((1S,2S)-2-(4-fluorophenyl)cyclopropyl)imidazo[1,2-b]pyridazin-6-yl)pyrimidine-2,4(1H,3H)-dione and 5-(8-((1R,2R)-2-(4-fluorophenyl)cyclopropyl)imidazo[1,2-b]pyridazin-6-yl)pyrimidine-2,4(1H,3H)-dione]	2.08	2.36	5.11	2.56
O=c1[nH]cc(-c2cc([C@@H]3C[C@H]3c3ccc(F)cc3F)c3nccn3n2)c(=O)[nH]1 (racemic) [Example 31, 5-(8-((1S,2S)-2-(2,4-difluorophenyl)cyclopropyl)imidazo[1,2-b]pyridazin-6-yl)pyrimidine-2,4(1H,3H)-dione and 5-(8-((1R,2R)-2-(2,4-difluorophenyl)cyclopropyl)imidazo[1,2-b]pyridazin-6-yl)pyrimidine-2,4(1H,3H)-dione]	0.93	5.49	4.83	3.84
COC(=O)c1ccccc1[C@H]1C[C@@H]1c1cc(-c2c[nH]c(=O)[nH]c2=O)nn2ccnc12 [Example 113, methyl 2-((1S,2S)-2-(6-(2,4-dioxo-1,2,3,4-tetrahydropyrimidin-5-yl)imidazo[1,2-b]pyridazin-8-yl)cyclopropyl)benzoate]	–	147	–	210
O=c1[nH]cc(-c2cc([C@H]3C[C@@H]3c3ccccc3)c3ncc(F)n3n2)c(=O)[nH]1 (racemic) [Example 87, 5-[3-fluoro-8-[(1S,2S)-2-phenylcyclopropyl]imidazo[1,2-b]pyridazin-6-yl]-1H-pyrimidine-2,4-dione and 5-[3-fluoro-8-[(1R,2R)-2-phenylcyclopropyl]imidazo[1,2-b]pyridazin-6-yl]-1H-pyrimidine-2,4-dione]	–	15.7	–	3.24
O=c1[nH]cc(-c2cc(N3CCC[C@H]3c3ccc(F)cc3)c3nccn3n2)c(=O)[nH]1 [Example 116, (S)-5-(8-(2-(4-fluorophenyl)pyrrolidin-1-yl)imidazo[1,2-b]pyridazin-6-yl)pyrimidine-2,4(1H,3H)-dione]	–	> 2500	–	718
O=c1[nH]cc(-c2cc([C@H]3C[C@@H]3c3cccc(F)c3)c3nccn3n2)c(=O)[nH]1 (racemic) [Example 29, 5-(8-((1S,2S)-2-(3-fluorophenyl)cyclopropyl)imidazo[1,2-b]pyridazin-6-yl)pyrimidine-2,4(1H,3H)-dione and 5-(8-((1R,2R)-2-(3-fluorophenyl)cyclopropyl)imidazo[1,2-b]pyridazin-6-yl)pyrimidine-2,4(1H,3H)-dione]	–	16.3	–	7.08
N#Cc1cccc([C@H]2C[C@@H]2c2cc(-c3c[nH]c(=O)[nH]c3=O)nn3ccnc23)c1 [Example 50, 3-((1S,2S)-2-(6-(2,4-dioxo-1,2,3,4-tetrahydropyrimidin-5-yl)imidazo[1,2-b]pyridazin-8-yl)cyclopropyl)benzonitrile]	1.37	10.7	5.84	2.45
COc1ccc([C@H]2C[C@@H]2c2cc(-c3c[nH]c(=O)[nH]c3=O)nn3ccnc23)cc1 [Example 112, 5-(8-((1S,2S)-2-(4-methoxyphenyl)cyclopropyl)imidazo[1,2-b]pyridazin-6-yl)pyrimidine-2,4(1H,3H)-dione]	–	20.5	–	2.23
O=c1[nH]cc(-c2cc([C@@H]3C[C@H]3c3ccccc3F)c3nccn3n2)c(=O)[nH]1 (racemic) [Example 28, 5-(8-((1S,2S)-2-(2-fluorophenyl)cyclopropyl)imidazo[1,2-b]pyridazin-6-yl)pyrimidine-2,4(1H,3H)-dione and 5-(8-((1R,2R)-2-(2-fluorophenyl)cyclopropyl)imidazo[1,2-b]pyridazin-6-yl)pyrimidine-2,4(1H,3H)-dione]	–	16.8	–	3.59
